Each structure is given as a SMILES string. Calls of active or inactive are those of the source.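 How the source made its calls: active means IC50 at or below 20 µM in the dose response; inactive means the rest.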

A word on the IC50: it is the concentration that gives 50% inhibition.

The experiment relates to HL-1 cardiomyocytes, 2-deoxyglucose injury, ATP luminescence, 2 h. Nature of the experiment: protection of HL-1 cells from ATP loss, SAR follow-up, 2-deoxyglucose, ATP luminescence (AID 623873).
As to `CCCn1c(SC(C(=O)Nc2cccc(OC)c2)c2ccccc2)nc2ccccc2c1=O` (configuration not stated), the IC50 was > 79 µM (inactive).
Consider `COc1ccc2cc(C(=O)N3CCN(S(=O)(=O)c4cc(C)ccc4C)CC3)c(C)nc2c1`, for which the IC50 was > 79 µM (inactive).
The figure for `O=c1[nH]c2ccccc2cc1CN(Cc1ccco1)S(=O)(=O)c1ccc(F)cc1` is > 79 µM (inactive).
In the case of `Cc1ccc(-c2[nH]c3ccccc3c2C(=O)C(=O)N(C)C)cc1`, the IC50 is > 79 µM (inactive).
The figure for `COc1ccc(S(=O)(=O)N(Cc2cccnc2)Cc2cc3ccccc3[nH]c2=O)cc1` is > 79 µM (inactive); for `Cc1ccc(S(=O)(=O)N(Cc2cccnc2)Cc2cc3ccccc3[nH]c2=O)cc1` it is > 79 µM (inactive); for `CCN(CC)C(=O)C(=O)c1c(-c2ccccc2)[nH]c2ccccc12` it is > 79 µM (inactive).
Consider `COc1ccc(-c2cc(C(=O)NCc3ccccc3)c3ccccc3n2)cc1OC`, for which the IC50 was > 79 µM (inactive).
The figure for `COCCn1c(SC(C(=O)Nc2cc(C)ccc2C)c2ccccc2)nc2ccccc2c1=O` (configuration not stated) is > 79 µM (inactive); for `COc1ccc2cc(C(=O)N3CCN(S(=O)(=O)c4ccc(C)cc4C)CC3)c(C)nc2c1` it is > 79 µM (inactive).
The figure for `NC(=O)c1nsc(C(=O)N(Cc2ccccc2)C(C(=O)NCc2ccc(F)cc2)c2ccc(O)cc2)c1N` (configuration not stated) is > 79 µM (inactive); for `COc1ccc(-n2cc(-c3ccccc3)c3c(N4CCCC4)ncnc32)cc1` it is > 79 µM (inactive); for `COc1cc(-c2cc(C(=O)Nc3cccc(C(C)=O)c3)c3ccccc3n2)cc(OC)c1OC` it is 1.76 µM.
With `COc1cccc(CN(C)C(=O)c2cc(-c3ccc(OC)c(OC)c3)nc3ccccc23)c1`, the half-inhibitory concentration (IC50) was 5.52 µM.
The figure for `NC(=O)c1nsc(C(=O)N(c2cccc(F)c2)C(C(=O)NC2CCCC2)c2ccc(O)cc2)c1N` (configuration not stated) is > 79 µM (inactive); for `COc1ccc2c(=O)c(C(=O)N3CCN(S(=O)(=O)c4c(C)cc(C)cc4C)CC3)c[nH]c2c1` it is > 79 µM (inactive).
Regarding `COc1ccc2c(c1OC)C(=O)N1c3ccccc3C(=O)N(c3ccc(F)cc3)C21` (configuration not stated), the IC50 was 3.4 µM.
The figure for `O=C(C(=O)N1CCCCC1)c1c(-c2ccccc2)[nH]c2ccccc12` is > 79 µM (inactive).
The figure for `COc1ccc2c(c1OC)C(=O)N1c3ccccc3C(=O)N(c3ccccc3C)C21` (configuration not stated) is 11.7 µM (inactive); for `COCCNC(=O)C(c1ccc(O)cc1)N(C(=O)c1snc(C(N)=O)c1N)c1ccccc1F` (configuration not stated) it is > 79 µM (inactive); for `O=C(C(=O)N1CCCC1)c1c(-c2ccccc2)[nH]c2ccccc12` it is > 79 µM (inactive).
On to `COc1ccccc1N1C(=O)c2ccccc2N2C(=O)c3c(ccc(OC)c3OC)C12` (configuration not stated), for which the IC50 is 29.4 µM (inactive).
`Cc1ccccc1N(C(=O)c1snc(C(N)=O)c1N)C(C(=O)NCc1ccc(F)cc1)c1ccc(O)cc1` (configuration not stated): the IC50 was > 79 µM (inactive).
Regarding `COc1cccc(CN(C)C(=O)c2cc(-c3ccccc3)nc3ccc(C)cc23)c1OC`, the IC50 is > 79 µM (inactive).
For `COc1ccc(-c2cc(C(=O)N(C)Cc3ccc(OC)c(OC)c3OC)c3ccccc3n2)cc1OC`, the IC50 was 2.9 µM.
The figure for `COc1ccc(-n2cc(-c3ccccc3)c3c(NCc4ccccc4)ncnc32)cc1` is > 79 µM (inactive); for `COc1ccc(-c2cc(C(=O)NCc3ccco3)c3ccccc3n2)cc1OC` it is 20.8 µM (inactive).
As for `COc1cccc(NC(=O)CN(C)C(=O)c2cc(-c3cccs3)nn2-c2ccccc2)c1`, the IC50 was > 79 µM (inactive).
The figure for `Cc1ccc(NC(=O)CN(C)C(=O)c2cc(-c3cccs3)nn2-c2ccccc2)cc1` is > 79 µM (inactive); for `COc1ccc2c(c1OC)C(=O)N1c3ccccc3C(=O)N(c3cccc(Br)c3)C21` (configuration not stated) it is 0.684 µM.
The figure for `Cc1ccc2cc(CN(C)S(=O)(=O)c3ccc(F)cc3)c(=O)[nH]c2c1` is > 79 µM (inactive); for `COc1ccc(-n2cc(-c3ccccc3)c3c(N4CCCCC4)ncnc32)cc1` it is > 79 µM (inactive); for `CCN(CC)S(=O)(=O)c1cc(C(=O)N2CCN(Cc3cccc4cccnc34)CC2)ccc1C` it is > 79 µM (inactive).
The figure for `COc1ccc(NC(=O)CN(C)C(=O)c2cc(-c3cccs3)nn2-c2ccccc2)cc1` is > 79 µM (inactive).
On to `O=C1c2ccccc2N2C(=O)c3ccccc3[C@H]2N1c1ccccc1`, for which the IC50 was > 79 µM (inactive).
`Cc1ccc(C)c(S(=O)(=O)N2CCN(C(=O)c3cc4cc(C)ccc4nc3C)CC2)c1`: the IC50 was > 79 µM (inactive).
The figure for `Cc1ccc(S(=O)(=O)N2CCN(C(=O)c3cc(=O)[nH]c4ccccc34)CC2)cc1C` is > 79 µM (inactive); for `COc1ccc(N2C(=O)c3ccccc3N3C(=O)c4c(ccc(OC)c4OC)C23)cc1` (configuration not stated) it is 1.47 µM.
The figure for `CCN(CC(=O)Nc1ccc(OC)cc1)C(=O)c1cc(-c2cccs2)nn1-c1ccccc1` is 2.27 µM.
The figure for `CCCN(CC(=O)Nc1ccccc1OC)C(=O)c1cc(-c2cccs2)nn1-c1ccccc1` is > 79 µM (inactive).
Take `COc1cccc(NC(=O)C(Sc2nc3ccccc3c(=O)n2CC(C)C)c2ccccc2)c1` (configuration not stated): the IC50 was > 79 µM (inactive).
The figure for `COc1ccc(-c2cc(C(=O)N(C)C)c3ccccc3n2)cc1OC` is 71.9 µM (inactive).

The values are drawn from PubChem BioAssay AID623873 (Sanford-Burnham Center for Chemical Genomics, 2012).
